Experimental data published in patent US6780994B2, “Phthalimido arylpiperazines useful in the treatment of benign prostatic hyperplasia” (Ortho-McNeil Pharmaceutical, Inc., priority 1998, dated 2004).

Experiments:
α1b-AR = target: T1, α1b-AR (Homo sapiens, UniProt P35368); test: radioligand ([125I]-HEAT) receptor binding assay, COS cell membranes expressing cloned receptor; settings: [125I]-HEAT 50 pM, 1 hour room temperature
T1 construct: expressed in transfected cells; host or cells: COS cells, pcDNA3 vector, transient DEAE-dextran transfection
T1 sequence (P35368 1-520): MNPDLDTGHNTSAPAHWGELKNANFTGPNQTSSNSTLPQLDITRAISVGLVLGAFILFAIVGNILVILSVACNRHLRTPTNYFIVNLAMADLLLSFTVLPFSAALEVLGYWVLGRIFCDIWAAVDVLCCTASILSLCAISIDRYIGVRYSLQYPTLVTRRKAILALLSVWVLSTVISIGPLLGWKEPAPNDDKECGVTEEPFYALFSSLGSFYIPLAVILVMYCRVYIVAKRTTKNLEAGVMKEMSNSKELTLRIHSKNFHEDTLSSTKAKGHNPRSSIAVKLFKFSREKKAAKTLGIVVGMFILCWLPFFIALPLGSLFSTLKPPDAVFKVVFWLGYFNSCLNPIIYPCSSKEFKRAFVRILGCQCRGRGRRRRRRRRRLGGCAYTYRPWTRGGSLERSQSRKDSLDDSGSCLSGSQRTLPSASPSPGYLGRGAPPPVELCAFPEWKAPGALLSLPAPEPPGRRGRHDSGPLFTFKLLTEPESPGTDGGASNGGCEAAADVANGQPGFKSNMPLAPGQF
Source text: (§1) The first assay tested the ability of compounds of Formula I to bind to membrane bound receptors α1a-AR, α1b-AR and α1d-AR.
(§2) The DNA sequences of the three cloned human α1-AR subtypes have been published. […] We used published DNA sequence information to design primers for use in RT-PCR amplification of each subtype to obtain cloned cDNAs. Human poly A+ RNA was obtained from commercially available sources and included hippocampus and prostate samples, sources which have been cited in the literature. For the primary screen a radioligand binding assay was used which employed membrane preparations from cells expressing the individual cloned receptor cDNAs. Radiolabeled ligands with binding activity on all three subtypes (non-selective) are commercially available ([125I]-HEAT, [3H]-prazosin). Each α1 receptor subtype was cloned from poly A+ RNA by the standard method of reverse transcription-polymerase chain reaction (RT-PCR). The following sources of polyA+ RNA were used for the cloning of the α1 receptor subtypes: α1a-AR, human hippocampus and prostate, α1b-AR, human hippocampus, α1d-AR, human hippocampus. The resulting cDNAs were cloned into the pcDNA3 mammalian expression vector (Invitrogen Corp., San Diego Calif.). Each DNA was sequenced for verification and to detect any possible mutations introduced during the amplification process. Any deviation in sequence from the published consensus for each receptor subtype was corrected by site-directed mutagenesis.
(§3) The three α1-AR subtypes (a, b, d) were transfected into COS cells using a standard DEAE-dextran procedure with a chloroquine shock. In this procedure, each tissue culture dish (100 mm) was inoculated with 3.5×10^6 cells and transfected with 10 μg of DNA. Approximately 72 hours post-transfection, the cells were harvested and COS membranes were prepared. Transfected COS cells from 25 plates (100 mm) were scraped and suspended in 15 mL of TE buffer (50 mM Tris-HCl, 5 mM EDTA, pH 7.4). The suspension was disrupted with a homogenizer. It was then centrifuged at 1000× g for 10 minutes at 4° C. The supernatant was centrifuged at 34,500× g for 20 minutes at 4° C. The pellet was resuspended in 5 mL TNE buffer (50 mM Tris-HCl, 5 mM EDTA, 150 mM NaCl, pH 7.4). The resulting membrane preparation was aliquoted and stored at −70° C. The protein concentration was determined following membrane solubilization with TritonX-100.
(§4) The ability of each compound to bind to each of the α1-AR subtypes was assessed in a receptor binding assay. [125I]-HEAT, a non-selective α1-AR ligand, was used as the radiolabeled ligand. Each well of a 96-well plate received: 140 μL TNE, […] [125I]-HEAT diluted in TNE (50,000 cpm; final concentration 50 pM), 10 μL test compound diluted in DMSO (final concentration 1 pM-10 μM), […] COS cell membrane preparation expressing one of the three α1-AR subtypes (0.05-0.2 mg membrane protein). The plate was incubated for 1 hour at room temperature and the reaction mixtures were filtered through a Packard GF/C Unifilter filter plate. The filter plate was dried for 1 hour in a vacuum oven. Scintillation fluid ([…]) was added to each well, and the filter plate was counted in a Packard Topcount scintillation counter. Data was analyzed using GraphPad Prism software.
(§5) Tables A through D list the IC50 values expressed in nanomolar concentration for select compounds of the invention in all receptor subtypes.

α1d-AR = target: T2, α1d-AR (Homo sapiens, UniProt P25100); test: as above; settings: [125I]-HEAT 50 pM, 1 hour room temperature
T2 construct: expressed in transfected cells; host or cells: COS cells, pcDNA3 vector, transient DEAE-dextran transfection
T2 sequence (P25100 1-572): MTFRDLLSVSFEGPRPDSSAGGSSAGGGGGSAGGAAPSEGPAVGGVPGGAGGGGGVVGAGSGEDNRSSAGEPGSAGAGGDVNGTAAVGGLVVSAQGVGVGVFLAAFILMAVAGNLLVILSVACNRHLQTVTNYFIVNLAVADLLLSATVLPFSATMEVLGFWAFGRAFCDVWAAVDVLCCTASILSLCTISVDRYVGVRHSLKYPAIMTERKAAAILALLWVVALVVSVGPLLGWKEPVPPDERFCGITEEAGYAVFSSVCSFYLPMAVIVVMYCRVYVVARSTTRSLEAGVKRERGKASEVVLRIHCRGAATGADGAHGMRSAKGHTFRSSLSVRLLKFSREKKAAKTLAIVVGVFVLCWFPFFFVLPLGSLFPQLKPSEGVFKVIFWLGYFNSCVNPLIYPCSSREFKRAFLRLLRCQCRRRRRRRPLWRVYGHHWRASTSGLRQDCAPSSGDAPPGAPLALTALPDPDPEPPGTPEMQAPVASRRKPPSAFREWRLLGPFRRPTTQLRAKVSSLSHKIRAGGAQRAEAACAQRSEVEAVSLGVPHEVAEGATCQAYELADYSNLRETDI
Source text: as §1, §2, §3, §4, §5

IC50 (α1b-AR): > 2000 nM
IC50 (α1d-AR): 51 nM
Compound: COc1ccc(N2C(=O)c3ccc(C(=O)NCC(O)CN4CCN(c5ccccc5OC(C)C)CC4)cc3C2=O)cc1 (centres unmarked) [Compound 55]
